Results on ten molecules are retold here after ChEMBL document CHEMBL1153923, “Carbonic anhydrase inhibitors. Inhibition of human erythrocyte isozymes I and II with a series of antioxidant phenols” (Bioorg Med Chem, 2009).

Structures are written as SMILES.

In general, Ki refers to a dissociation constant, usually derived from enzyme kinetics or from competition with a known ligand.

For the first assay, the target named is Carbonic anhydrase 1 (Homo sapiens, UniProt P00915). Kind of assay: Inhibition of human erythrocyte CA1 esterase activity using 4-nitrophenyl acetate substrate.
Sequence of Carbonic anhydrase 1 (P00915 whole entry): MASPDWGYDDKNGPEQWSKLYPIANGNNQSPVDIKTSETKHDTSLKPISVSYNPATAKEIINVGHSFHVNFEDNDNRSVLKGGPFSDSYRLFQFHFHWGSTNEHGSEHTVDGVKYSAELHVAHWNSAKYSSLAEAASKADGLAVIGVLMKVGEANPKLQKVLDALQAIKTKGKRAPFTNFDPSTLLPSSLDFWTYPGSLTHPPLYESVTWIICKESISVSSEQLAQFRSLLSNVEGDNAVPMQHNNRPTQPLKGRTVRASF
`COc1cc(C(C)(C)C)c(O)c(C(C)(C)C)c1`: the affinity corresponds to a Ki of 63.7 µM. This lies in the double-digit micromolar range. On the same count and under the same terms, next, `CC(C)(C)c1cc(-c2cc(C(C)(C)C)c(O)c(C(C)(C)C)c2)cc(C(C)(C)C)c1O`: 37.5 µM; `Cc1cc(C(C)(C)C)c(O)c(C(C)(C)C)c1` [BUTYLATED HYDROXYTOLUENE]: 245 µM.

The molecule `Cc1cccc(C)c1O` returned a Ki of 198 µM. On the same count and under the same terms, next, `CC(C)(C)c1cccc(C(C)(C)C)c1O`: 275 µM; `Cc1cc(-c2cc(C)c(O)c(C)c2)cc(C)c1O`: 92.8 µM; `CC(C)c1cc(-c2cc(C(C)C)c(O)c(C(C)C)c2)cc(C(C)C)c1O`: 37.9 µM.

Turning to `CC(C)c1cccc(C(C)C)c1O` [PROPOFOL], the Ki is 98.9 µM. Same read-out and setting: the same measure for `COc1c(O)cccc1C=O`: 55.6 µM; for `COc1ccccc1O` [GUAIACOL]: 60.2 µM.

The target in the next assay is Carbonic anhydrase 2 (Homo sapiens, UniProt P00918).
Description: Inhibition of human erythrocyte CA2 esterase activity using 4-nitrophenyl acetate substrate
Molecule `Cc1cc(C(C)(C)C)c(O)c(C(C)(C)C)c1` [BUTYLATED HYDROXYTOLUENE] yielded an inhibitory constant (Ki) of 0.63 µM. For `Cc1cccc(C)c1O`, affinity was put at a Ki of 113 µM.

The molecule `Cc1cc(-c2cc(C)c(O)c(C)c2)cc(C)c1O` yielded an inhibitory constant (Ki) of 4.05 µM. This Ki lies about 28-fold lower than the previous one. The same measure, in the same setting: next, `CC(C)c1cccc(C(C)C)c1O` [PROPOFOL]: 19.5 µM; `COc1ccccc1O` [GUAIACOL]: 2.94 µM.
